From patent US20020055463A1, “Pseudopeptide compounds having an inhibiting activity with respect to paths activated by proteins with active tyrosine kinase activity and pharmaceutical compositions containing same” (priority 1998, published 2002)
Where a SMILES comes first, the peptide text is derived from it. [ ]: non-standard residue; d: D form. pY = N[C@@H](Cc1ccc(OP(=O)(O)O)cc1)C(=O)O

Columns and labels:
Grb2 [1] = target: T1, Grb2 (Homo sapiens, UniProt P62993); experiment: Affinity for Grb2 measured by fluorescence; type: binding; conditions: 25° C., 50 mM HEPES, 1 mM DTT, pH 7.5, emission 345 nm, excitation 292 nm, read-out: Diss. const. fluo Kd
From the text: They are expressed therein as the dissociation constant Kd.

Grb2 [2] = target: T1, Grb2; experiment: ELISA competition test (Grb2/biotin-Aha-PSpYVNVQN displacement); type: binding; conditions: displacement of GST-Grb2 (40 ng/ml) from fixed peptide biotin-Aha-PSpYVNVQN (Shc tyrosine 317)
Protocol: Plates pre-treated with streptavidine (Boehringer) are incubated overnight at 4° C. with 100 μl of a solution of peptide biotin-Aha-PSpYVNVQN (Aha: 6-amino-hexanoic acid) (100 nM solution in TBS buffer Tris 100 mM, NaCl 50 mM, pH 7.5) per well. The non-specific binding is then blocked by incubating for 4 hours with the same buffer containing 3% of skimmed milk ([…]). The products to be tested are distributed among the wells at the desired dilution in the abovementioned buffer containing 3% of skimmed milk and 40 ng/ml of GST-Grb2 (100 μl per well). After one night's incubation, the plates are carefully rinsed 4 times using TBS-milk-0.05% tween 20, then incubated for 2 hours at 37° C., in the presence of 100 μl per well of anti-GST antibody (transduction, dilution 1/500 in TBS-milk-0.05% tween 20). The plates are then carefully rinsed 4 times using TBS-milk-0.05% tween 20, then incubated for 45 minutes at 37° C. in the presence of 100 µl per well of anti-mouse antibody coupled with peroxidase (Amersham, 1/1000 dilution in TBS-milk-0.05% tween 20). The plates are carefully rinsed using TBS-milk-0.05% tween 20, then incubated in the presence of 200 μl per well of TMB developing solution (Interchim), until a sufficient blue coloration has developed. The reaction is then stopped by adding 100 μl of 10% (VN) sulphuric acid per well. The reading is taken at 550 nm. The value read off for each well is then reduced by the control value of an equivalent well with no fixed peptide biotin-Aha-PSpYVNVQN then treated, like its homologue, with fixed peptide. The data is then processed using “Origin 40” software to obtain the 50 inhibitory concentrations.

T1 sequence (P62993 whole entry, species assumed): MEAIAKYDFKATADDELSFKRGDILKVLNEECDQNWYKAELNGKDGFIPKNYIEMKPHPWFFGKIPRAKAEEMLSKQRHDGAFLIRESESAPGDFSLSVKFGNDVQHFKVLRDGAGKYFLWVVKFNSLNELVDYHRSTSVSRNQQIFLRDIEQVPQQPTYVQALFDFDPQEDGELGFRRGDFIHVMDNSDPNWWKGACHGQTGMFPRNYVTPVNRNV

Compound	Kd (Grb2 [1]) [nM]	IC50 (Grb2 [2]) [nM]
CC(Cc1ccc(CP(=O)(O)O)cc1)(NC(=O)[C@H](Cc1ccc(OP(=O)(O)O)cc1)NC(=O)OCc1cccc(N)c1)C(=O)N[C@@H](CC(N)=O)C(N)=O (stereo partly drawn) [mAZ-pTyr-(αMe)Pmp-Asn-NH2, mAZ-pTyr-(D,L)(αMe)Pmp-Asn-NH2]	70	266
C[C@@](Cc1ccc(CC(=O)O)cc1)(NC(=O)[C@H](Cc1ccc(OP(=O)(O)O)cc1)NC(=O)OCc1cccc(N)c1)C(=O)N[C@@H](CC(N)=O)C(N)=O [mAZ-pTyr-(αMe)Phe(CH2—COOH)-Asn-NH2, mAZ-pTyr-(αMe)Phe(4-CH2CO2H)-Asn-NH2]	60	198
C[C@@](Cc1ccc(C(=O)O)cc1)(NC(=O)[C@H](Cc1ccc(OP(=O)(O)O)cc1)NC(=O)OCc1cccc(N)c1)C(=O)N[C@@H](CC(N)=O)C(N)=O [mAZ-pTyr-(αMe)Phe(COOH)-Asn-NH2, mAZ-pTyr-(αMe)Phe(4-CO2H)-Asn-NH2]	45	153
C[C@@](Cc1ccc(OP(=O)(O)O)cc1)(NC(=O)[C@H](Cc1ccc(CP(=O)(O)O)cc1)NC(=O)OCc1cccc(N)c1)C(=O)N[C@@H](CC(N)=O)C(N)=O [mAZ-Pmp-(αMe)pTyr-Asn-NH2, mAZ-Pmp-(α-Me) pTyr-Asn-NH2]		42
CC(C)[C@H](NC(=O)[C@H](CC(N)=O)NC(=O)[C@@H](NC(=O)[C@H](Cc1ccc(OP(=O)(O)O)cc1)NC(=O)[C@H](CO)NC(=O)[C@@H]1CCCN1)C(C)C)C(=O)N[C@@H](CCC(N)=O)C(=O)N[C@@H](CC(N)=O)C(=O)O [PSpYVNVQN (Shc 317), reference compound] (H-PS[pY]VNVQN-OH)		71
NC(=O)C[C@H](NC(=O)[C@H](Cc1ccc(OP(=O)(O)O)cc1)NC(=O)[C@H](Cc1ccc(OP(=O)(O)O)cc1)NC(=O)OCc1cccc(N)c1)C(N)=O [mAZ-pTyr-pTyr-Asn-NH2, reference compound]	60	235
CC(Cc1ccc(C(F)(F)P(=O)(O)O)cc1)(NC(=O)[C@H](Cc1ccc(OP(=O)(O)O)cc1)NC(=O)OCc1cccc(N)c1)C(=O)N[C@@H](CC(N)=O)C(N)=O (stereo partly drawn) [mAZ-pTyr-(αMe)F2Pmp-Asn-NH2, mAZ-pTyr-(D,L)(α-Me)F2Pmp-Asn-NH2]		64
NC(=O)C[C@H](NC(=O)C1(NC(=O)[C@H](Cc2ccc(OP(=O)(O)O)cc2)NC(=O)OCc2cccc(N)c2)CCCCC1)C(N)=O [mAZ-pTyr-Acac-Asn-NH2, reference compound]	30	120
NC(=O)C[C@H](NC(=O)[C@H](Cc1ccc(O)cc1)NC(=O)[C@H](Cc1ccc(OP(=O)(O)O)cc1)NC(=O)OCc1cccc(N)c1)C(N)=O [mAZ-pTyr-Tyr-Asn-NH2, reference compound]	155	497
C[C@@](Cc1ccc(O)cc1)(NC(=O)[C@H](Cc1ccc(OP(=O)(O)O)cc1)NC(=O)OCc1cccc(N)c1)C(=O)N[C@@H](CC(N)=O)C(N)=O [mAZ-pTyr-(αMe)Tyr-Asn-NH2, mAZ-pTyr-(α-Me)Tyr-Asn-NH2, reference compound]	250	1100
CC(Cc1ccc(P(=O)(O)O)cc1)(NC(=O)[C@H](Cc1ccc(OP(=O)(O)O)cc1)NC(=O)OCc1cccc(N)c1)C(=O)N[C@@H](CC(N)=O)C(N)=O (stereo partly drawn) [mAZ-pTyr-(αMe)Ppp-Asn-NH2 (D or L)]	4.5	
C[C@@](Cc1ccc(OP(=O)(O)O)cc1)(NC(=O)[C@H](Cc1ccc(OP(=O)(O)O)cc1)NC(=O)OCc1cccc(N)c1)C(=O)N[C@@H](CC(N)=O)C(N)=O [mAZ-pTyr-(αMe)pTyr-Asn-NH2, mAZ-pTyr-(α-Me)pTyr-Asn-NH2]	3	11
